Assay results taken from PubChem BioAssay AID566 (University of Pittsburgh Molecular Library Screening Center, 2006).
The source made the active and inactive calls. No rule for the calls is given here.

Target: Dual specificity protein phosphatase 6 (Rattus norvegicus) (UniProt Q64346)
Test: MKP-3 phosphatase inhibitors, repeat potency, dose response, biochemical, rat DUSP6, reproducibility testing, probe assessment (AID 566)
Settings: recombinant MKP-3 phosphatase, fluorescence substrate

Sequence of Dual specificity protein phosphatase 6 (Rattus norvegicus) (Q64346 whole entry, looked up): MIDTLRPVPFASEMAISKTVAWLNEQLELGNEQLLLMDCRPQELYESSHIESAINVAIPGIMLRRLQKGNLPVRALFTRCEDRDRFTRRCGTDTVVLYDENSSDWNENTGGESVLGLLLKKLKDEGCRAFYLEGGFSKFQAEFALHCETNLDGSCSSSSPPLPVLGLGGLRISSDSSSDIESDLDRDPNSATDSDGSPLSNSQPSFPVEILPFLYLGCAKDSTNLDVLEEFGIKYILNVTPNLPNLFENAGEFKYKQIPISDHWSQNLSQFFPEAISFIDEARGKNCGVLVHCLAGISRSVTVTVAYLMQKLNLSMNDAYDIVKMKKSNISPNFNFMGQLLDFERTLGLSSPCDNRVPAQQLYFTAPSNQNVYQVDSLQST

IC50: > 50 µM (inactive)
SMILES: O=C1C(C2=C(O)c3ccccc3C2=O)=Nc2ccccc21
